This is an account of results in patent US8653087B2, “Pyrido [5, 4-D] pyrimidines as cell proliferation inhibitors” (Boehringer Ingelheim International GmbH, priority 2008, dated 2014).

Bounds are passed on as bounds.

This assay deals with B-Raf (V600E)-kinase (Homo sapiens (Human), UniProt P15056, V600E). Briefly: Kinase test B-RAF (V600E). The class given is biochemical. As to conditions: B-RAF (V600E) kinase test, 250 μM ATP. In a few lines: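 B-Raf (V600E) (0.5 ng) preincubated with compound 24 h at RT (5% DMSO), then reacted 60 min at RT with 250 μM ATP and biotinylated MEK1 as substrate. Phospho-MEK (Ser217/221) captured on streptavidin and detected by europium time-resolved fluorescence; IC50 from dose-response curves.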
B-Raf (V600E)-kinase, sequence (P15056 whole entry V600E): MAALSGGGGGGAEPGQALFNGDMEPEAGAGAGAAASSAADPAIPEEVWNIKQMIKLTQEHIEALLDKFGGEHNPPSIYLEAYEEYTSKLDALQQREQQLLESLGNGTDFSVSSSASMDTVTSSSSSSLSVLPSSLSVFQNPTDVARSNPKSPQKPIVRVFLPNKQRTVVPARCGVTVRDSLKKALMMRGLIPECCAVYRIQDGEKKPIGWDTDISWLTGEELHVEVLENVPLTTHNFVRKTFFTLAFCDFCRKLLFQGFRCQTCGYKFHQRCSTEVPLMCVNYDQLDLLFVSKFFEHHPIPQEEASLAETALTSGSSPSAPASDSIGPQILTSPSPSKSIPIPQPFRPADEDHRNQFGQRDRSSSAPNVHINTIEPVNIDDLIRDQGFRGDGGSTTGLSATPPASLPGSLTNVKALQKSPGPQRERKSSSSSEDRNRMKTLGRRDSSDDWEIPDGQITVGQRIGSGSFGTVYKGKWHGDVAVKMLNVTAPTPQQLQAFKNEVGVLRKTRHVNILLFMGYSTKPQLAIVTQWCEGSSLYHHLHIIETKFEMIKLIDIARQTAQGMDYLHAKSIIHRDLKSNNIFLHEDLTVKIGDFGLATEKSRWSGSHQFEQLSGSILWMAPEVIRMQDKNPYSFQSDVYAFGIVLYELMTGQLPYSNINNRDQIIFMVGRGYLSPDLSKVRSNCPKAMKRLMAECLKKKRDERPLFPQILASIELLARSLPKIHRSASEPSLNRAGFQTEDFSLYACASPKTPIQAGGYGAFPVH
As for `Cc1ccc(C(=O)Nc2cc(C(C)(C)C)on2)cc1Nc1ncnc2cnc(N3CCC(N4CCOCC4)CC3)nc12` [III-489], the IC50 (commonly the concentration needed to halve the response being measured) turned out to be 1 nM.
In the case of `Cc1ccc(C(=O)Nc2cc(C(C)(C)C)on2)cc1Nc1ncnc2cnc(N3CCC(N4CCCC4)CC3)nc12` [III-490], the 50% inhibitory concentration (IC50) was 2 nM.
In turn, `CCN1CCN(c2ncc3ncnc(Nc4cc(C(=O)Nc5cc(C(C)(C)C)on5)ccc4C)c3n2)CC1` [III-491] had a concentration for half-maximal inhibition (IC50) of 2 nM.
`Cc1ccc(C(=O)Nc2cc(C(C)(C)C)on2)cc1Nc1ncnc2cnc(N3CCN(C(C)C)CC3)nc12` [III-492]: inhibition was half-maximal at 2 nM (IC50).
For `Cc1ccc(C(=O)Nc2cc(C(C)(C)C)on2)cc1Nc1ncnc2cnc(N3CCN(C4CC4)CC3)nc12` [III-493] the value was 5 nM.
As for `Cc1ccc(C(=O)Nc2cc(C(C)(C)C)on2)cc1Nc1ncnc2cnc(N3CCN(CC(C)C)CC3)nc12` [III-494], the 50% inhibitory concentration (IC50) came to 4 nM.
`Cc1ccc(C(=O)Nc2cc(C(C)(C)C)on2)cc1Nc1ncnc2cnc(N3CCC(N(C)C)CC3)nc12` [III-495] yielded an IC50 of 2 nM.
The compound `Cc1ccc(C(=O)Nc2cc(C(C)(C)C)on2)cc1Nc1ncnc2cnc(N3C[C@@H](C)N[C@@H](C)C3)nc12` [III-496] gave an IC50 of 2 nM.
The compound `Cc1ccc(C(=O)Nc2cc(C(C)(C)C)on2)cc1Nc1ncnc2cnc(N3C[C@H]4C[C@@H]3CN4C)nc12` [III-497] yielded an IC50 of 2 nM.
Compound `Cc1ccc(C(=O)Nc2cc(C(C)(C)C)nn2C)cc1Nc1ncnc2cnc(NCC(C)C)nc12` [III-499] displayed an IC50 of 3 nM.
Consider `Cc1ccc(C(=O)Nc2cccc(C(C)(C)C)c2)cc1Nc1ncnc2cnc(NCC(C)C)nc12` [III-500], for which the IC50 is below 1 nM.
In turn, `COCCN1CCN(c2ncc3ncnc(Nc4cc(C(=O)Nc5cc(N6CCN(C)CC6)c(F)c(C(F)(F)F)c5)ccc4C)c3n2)CC1` [III-501] had a concentration for half-maximal inhibition (IC50) of 25 nM.
The same measure for `COCCN1CCN(c2ncc3ncnc(Nc4cc(C(=O)Nc5cc(-n6cnc(C)c6)cc(C(F)(F)F)c5)ccc4C)c3n2)CC1` [III-502]: 8 nM.
`Cc1ccc(C(=O)Nc2cc(N3CCN(C)CC3)c(F)c(C(F)(F)F)c2)cc1Nc1ncnc2cnc(N3CCOCC3)nc12` [III-503] registered an IC50 of 1 nM.
Compound `Cc1ccc(C(=O)Nc2cc(C(C)(C)C)on2)cc1Nc1ncnc2cnc(N3CCN(C)CC3)nc12` [III-504] registered an IC50 of 2 nM.
The compound `COCCN1CCN(c2ncc3ncnc(Nc4cc(C(=O)Nc5cc(C(C)(C)C)cc(NS(C)(=O)=O)c5OC)ccc4C)c3n2)CC1` [III-505] had a half-inhibitory concentration (IC50) of 49 nM.
The compound `Cc1ccc(C(=O)Nc2cc(N3CCN(C)CC3)c(F)c(C(F)(F)F)c2)cc1Nc1ncnc2cnc(NC3CCOC3)nc12` (stereo not drawn) [III-506] came in with an IC50 of 4 nM.
Take `Cc1cn(-c2cc(NC(=O)c3ccc(C)c(Nc4ncnc5cnc(NC6CCOC6)nc45)c3)cc(C(F)(F)F)c2)cn1` (stereo not drawn) [III-507]: half-maximal inhibition (IC50) was put at 1 nM.
`Cc1ccc(C(=O)Nc2cc(C(C)(C)C)n[nH]2)cc1Nc1ncnc2cnc(N3CC[C@H](F)C3)nc12` [III-508]: the half-inhibitory concentration (IC50) turned out to be 3 nM.
Compound `Cc1ccc(C(=O)Nc2cc(N3CCN(C)CC3)c(F)c(C(F)(F)F)c2)cc1Nc1ncnc2cnc(N3CCN(CC4CCN(C)CC4)CC3)nc12` [III-509] displayed an IC50 of 5 nM.
Compound `Cc1ccc(C(=O)Nc2cc(C(F)(F)F)ccn2)cc1Nc1ncnc2cnc(N3CCN(CC4CCN(C)CC4)CC3)nc12` [III-510] came in with a 50% inhibitory concentration (IC50) below 1 nM.
The compound `Cc1ccc(C(=O)Nc2cc(N3CCN(C)CC3)c(F)c(C(F)(F)F)c2)cc1Nc1ncnc2cnc(N3CC[C@H](F)C3)nc12` [III-511] returned an IC50 of 4 nM.
On to `Cc1ccc(C(=O)Nc2cc(C(C)(C)C)n[nH]2)cc1Nc1ncnc2cnc(NCc3ccccc3)nc12` [III-512], for which the 50% inhibitory concentration (IC50) is 2 nM.
In turn, `Cc1ccc(C(=O)Nc2cc(C(C)(C)C)nn2C)cc1Nc1ncnc2cnc(N3CCOCC3)nc12` [III-513] yielded an IC50 of 1 nM.
Take `Cc1ccc(C(=O)Nc2cc(N3CCCN(C)CC3)cc(C(F)(F)F)c2)cc1Nc1ncnc2cnc(N(C)CCF)nc12` [III-514]: half-maximal inhibition (IC50) was put at 1 nM.
`Cc1ccc(C(=O)Nc2cc(C(C)(C)C)n[nH]2)cc1Nc1ncnc2cnc(N3CCOCC3)nc12` [III-515]: the IC50 was below 1 nM.
For `Cc1ccc(C(=O)Nc2cc(C(C)(C)C)on2)cc1Nc1ncnc2cnc(N3CCOCC3)nc12` [III-516], the IC50 was below 1 nM.
In the case of `COCCN1CCN(c2ncc3ncnc(Nc4cc(C(=O)Nc5cc(C(C)(C)C)on5)ccc4C)c3n2)CC1` [III-517], the half-maximal inhibitory concentration (IC50) came to 3 nM.
For `Cc1ccc(C(=O)Nc2cc(N3CCN(C)CC3)cc(C(F)(F)F)c2)cc1Nc1ncnc2cnc(N(C)CCF)nc12` [III-518], the half-inhibitory concentration (IC50) is 2 nM.
In turn, `Cc1ccc(C(=O)Nc2cc(C(F)(F)F)ccn2)cc1Nc1ncnc2cnc(NCC(C)C)nc12` [III-519] registered a half-maximal inhibitory concentration (IC50) below 1 nM.
Consider `Cc1ccc(C(=O)Nc2cccc(C(C)(C)C#N)c2)cc1Nc1ncnc2cnc(NCC(C)C)nc12` [III-520], for which the 50% inhibitory concentration (IC50) worked out at 2 nM.
For the compound `Cc1ccc(C(=O)Nc2cc(C(C)(C)C)on2)cc1Nc1ncnc2cnc(NCc3ccccc3)nc12` [III-521], inhibition was half-maximal at 2 nM (IC50).
`Cc1ccc(C(=O)Nc2cc(C(F)(F)F)ccn2)cc1Nc1ncnc2cnc(NCc3ccccc3)nc12` [III-522]: half-maximal inhibition (IC50) was put at 3 nM.
As to `Cc1ccc(C(=O)Nc2cc(OCCN3CCCC3)cc(C(F)(F)F)c2)cc1Nc1ncnc2cnc(N3CCOCC3)nc12` [III-523], the IC50 stood at 1 nM.
`Cc1ccc(C(=O)Nc2cc(N3C[C@@H](C)N[C@@H](C)C3)cc(C(F)(F)F)c2)cc1Nc1ncnc2cnc(N3CCOCC3)nc12` [III-524]: half-maximal inhibition (IC50) required 3 nM.
`Cc1ccc(C(=O)Nc2cc(N3CCOCC3)cc(C(F)(F)F)c2)cc1Nc1ncnc2cnc(N3CCOCC3)nc12` [III-525]: 3 nM corresponded to half-maximal inhibition (IC50).
The same measure for `Cc1ccc(C(=O)Nc2cc(N3CCN(CCO)CC3)cc(C(F)(F)F)c2)cc1Nc1ncnc2cnc(N3CCOCC3)nc12` [III-526]: 4 nM.
Regarding `Cc1ccc(C(=O)Nc2cc(N3CCN[C@H](C)C3)cc(C(F)(F)F)c2)cc1Nc1ncnc2cnc(N3CCOCC3)nc12` [III-527], the IC50 is below 1 nM.
In turn, `Cc1ccc(C(=O)Nc2cc(CN3CCCC3)c(Cl)c(C(F)(F)F)c2)cc1Nc1ncnc2cnc(N3CCOCC3)nc12` [III-528] had a half-maximal inhibitory concentration (IC50) of 2 nM.
For `Cc1ccc(C(=O)Nc2cc(OCCN3CCOCC3)cc(C(F)(F)F)c2)cc1Nc1ncnc2cnc(N3CCOCC3)nc12` [III-529] the value was 3 nM; for `Cc1ccc(C(=O)Nc2cc(-n3ccnc3)cc(C(F)(F)F)c2)cc1Nc1ncnc2cnc(N3CCOCC3)nc12` [III-530], 582 nM; for `COCCN1CCN(c2ncc3ncnc(Nc4cc(C(=O)Nc5cc(C(F)(F)F)ccc5C#N)ccc4C)c3n2)CC1` [III-531], 13 nM.
Regarding `COCCN1CCN(c2ncc3ncnc(Nc4cc(C(=O)Nc5ccc(C#N)c(C(F)(F)F)c5)ccc4C)c3n2)CC1` [III-532], 2 nM corresponded to half-maximal inhibition (IC50).
The compound `COCCN1CCN(c2ncc3ncnc(Nc4cc(C(=O)Nc5cc(C(F)(F)F)ccc5Cl)ccc4C)c3n2)CC1` [III-533] gave an IC50 of 6 nM.
The compound `COCCN1CCN(c2ncc3ncnc(Nc4cc(C(=O)Nc5cc(C(F)(F)F)ccc5N5CCOCC5)ccc4C)c3n2)CC1` [III-534] gave an IC50 of 106 nM.
In turn, `COCCN1CCN(c2ncc3ncnc(Nc4cc(C(=O)Nc5cc(OC)cc(C(F)(F)F)c5)ccc4C)c3n2)CC1` [III-535] gave a half-inhibitory concentration (IC50) of 4 nM.
Regarding `COCCN1CCN(c2ncc3ncnc(Nc4cc(C(=O)Nc5ccc(F)c(C(F)(F)F)c5)ccc4C)c3n2)CC1` [III-536], it took 1 nM to reach half-maximal inhibition (IC50).
Consider `COCCN1CCN(c2ncc3ncnc(Nc4cc(C(=O)Nc5cc(C(F)(F)F)ccc5-n5ccnn5)ccc4C)c3n2)CC1` [III-537], for which it took 12 nM to reach half-maximal inhibition (IC50).
With `COCCN1CCN(c2ncc3ncnc(Nc4cc(C(=O)Nc5cc(C(F)(F)F)ccc5-n5cccn5)ccc4C)c3n2)CC1` [III-538], inhibition was half-maximal at 10 nM (IC50).
The same measure for `COc1c(CN2CCCC2)cc(C(F)(F)F)cc1NC(=O)c1ccc(C)c(Nc2ncnc3cnc(N4CCOCC4)nc23)c1` [III-539]: 2 nM; for `COc1c(CNC(C)C)cc(C(F)(F)F)cc1NC(=O)c1ccc(C)c(Nc2ncnc3cnc(N4CCOCC4)nc23)c1` [III-540]: 5 nM.
For `COc1c(CN2CCCC2)cc(C(F)(F)F)cc1NC(=O)c1ccc(C)c(Nc2ncnc3cnc(N4CC[C@H](F)C4)nc23)c1` [III-541] the value was 15 nM; for `COc1c(CNC(C)C)cc(C(F)(F)F)cc1NC(=O)c1ccc(C)c(Nc2ncnc3cnc(N4CC[C@H](F)C4)nc23)c1` [III-542], 12 nM; for `COc1ccc(NC(=O)c2ccc(C)c(Nc3ncnc4cnc(N(C)CC5CCCO5)nc34)c2)cc1C(F)(F)F` (stereo not drawn) [III-543], 3 nM.
For `COc1ccc(NC(=O)c2ccc(C)c(Nc3ncnc4cnc(NCC5CCCCO5)nc34)c2)cc1C(F)(F)F` (stereo not drawn) [III-544], 1 nM corresponded to half-maximal inhibition (IC50).
Take `COC[C@@H]1CCCN1c1ncc2ncnc(Nc3cc(C(=O)Nc4ccc(OC)c(C(F)(F)F)c4)ccc3C)c2n1` [III-545]: the IC50 is 2 nM.
The same measure for `COc1ccc(NC(=O)c2ccc(C)c(Nc3ncnc4cnc(N5CCC[C@H]5CO)nc34)c2)cc1C(F)(F)F` [III-546]: 4 nM; for `COc1ccc(NC(=O)c2ccc(C)c(Nc3ncnc4cnc(NCC(C)C)nc34)c2)cc1C(F)(F)F` [III-547]: below 1 nM; for `COc1ccc(NC(=O)c2ccc(C)c(Nc3ncnc4cnc(N(C)C5CCOC5)nc34)c2)cc1C(F)(F)F` (stereo not drawn) [III-548]: 3 nM.
For the compound `COc1ccc(NC(=O)c2ccc(C)c(Nc3ncnc4cnc(-n5cnc(C)c5)nc34)c2)cc1C(F)(F)F` [III-549], the half-inhibitory concentration (IC50) is 8 nM.
The same measure for `COc1ccc(NC(=O)c2ccc(C)c(Nc3ncnc4cnc(N5C[C@@H](C)O[C@@H](C)C5)nc34)c2)cc1C(F)(F)F` [III-550]: 4 nM; for `COc1ccc(NC(=O)c2ccc(C)c(Nc3ncnc4cnc(N5CCCOCC5)nc34)c2)cc1C(F)(F)F` [III-551]: 1 nM.
Regarding `COc1ccc(NC(=O)c2ccc(C)c(Nc3ncnc4cnc(N5CCN(CCN6CCOCC6)CC5)nc34)c2)cc1C(F)(F)F` [III-552], 17 nM corresponded to half-maximal inhibition (IC50).
